This note sets out measurements from patent publication US20240158446A1, “CYCLIC COMPOUND HAVING SELECTIVE INHIBITORY ACTION ON KRAS OVER HRAS AND NRAS” (CHUGAI SEIYAKU KABUSHIKI KAISHA, priority 2021, published 2024).

In assay [1] the target is GDP-bound KRAS wild-type protein (Homo sapiens, UniProt P01116). Kind of assay: Binding to KRAS by surface plasmon resonance (SPR), Single Cycle Kinetics. The note with it: SPR, Single Cycle Kinetics, GDP-bound KRAS wild-type protein; read-out: KRAS KD. On the technique in general: In SPR one partner is held on a chip, and binding of the other changes the refractive index at the surface.
Sequence of GDP-bound KRAS wild-type protein (P01116 whole entry): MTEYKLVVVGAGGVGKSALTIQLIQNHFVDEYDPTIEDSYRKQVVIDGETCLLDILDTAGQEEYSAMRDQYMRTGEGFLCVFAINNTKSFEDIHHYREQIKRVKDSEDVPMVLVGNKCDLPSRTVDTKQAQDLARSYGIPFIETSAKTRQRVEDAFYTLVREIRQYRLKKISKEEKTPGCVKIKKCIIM

Assay [2] deals with GDP-bound NRAS wild-type protein (Homo sapiens, UniProt P01111). Kind of assay: Binding to NRAS by surface plasmon resonance (SPR), Single Cycle Kinetics. The note with it: SPR, GDP-bound NRAS wild-type protein vs GDP-bound KRAS wild-type protein.
Sequence of GDP-bound NRAS wild-type protein (P01111 whole entry): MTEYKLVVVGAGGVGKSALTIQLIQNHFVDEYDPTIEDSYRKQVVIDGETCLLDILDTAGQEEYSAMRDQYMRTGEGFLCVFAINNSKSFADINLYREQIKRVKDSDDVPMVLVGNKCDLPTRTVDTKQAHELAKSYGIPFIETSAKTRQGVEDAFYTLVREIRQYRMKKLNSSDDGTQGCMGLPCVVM
Assay [3] deals with GDP-bound HRAS wild-type protein (Homo sapiens, UniProt P01112). Kind of assay: Binding to HRAS by surface plasmon resonance (SPR), Single Cycle Kinetics. The note with it: SPR, GDP-bound HRAS wild-type protein vs GDP-bound KRAS wild-type protein.
Sequence of GDP-bound HRAS wild-type protein (P01112 whole entry): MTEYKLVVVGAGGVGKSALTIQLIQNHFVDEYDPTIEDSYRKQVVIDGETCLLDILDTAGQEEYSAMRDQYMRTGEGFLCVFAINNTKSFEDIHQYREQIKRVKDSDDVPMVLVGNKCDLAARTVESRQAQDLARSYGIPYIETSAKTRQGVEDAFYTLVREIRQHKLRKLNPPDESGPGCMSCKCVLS

As to `CCO[C@@H]1C[C@H]2C(=O)NC3(CCCC3)C(=O)N(C)[C@@H](C3CCCC3)C(=O)N(C)[C@H](C(=O)N(C)C)CC(=O)N(C)[C@@H](CC(C)C)C(=O)N[C@@H]([C@@H](C)CC)C(=O)N(C)CC(=O)N(C)[C@H]3C/C=C\CCN(C3=O)[C@@H](Cc3ccc(C(F)(F)F)cc3)C(=O)N(C)CC(=O)N[C@@H](CCc3cc(F)c(Cl)c(F)c3)C(=O)N2C1` [PP2269], the dissociation constant (Kd) in assay [1] turned out to be 0.38 nM. In assay [2], the “NRAS/KRAS (ratio of KD value for NRAS to KD value for KRAS)” value is “A (a compound having 10 or more and less than 20 is denoted as A)”. Besides, the “HRAS/KRAS (ratio of KD value for HRAS to KD value for KRAS)” value in assay [3] is “A (a compound having 10 or more and less than 20 is denoted as A)”.
`CCC[C@H]1C(=O)N[C@@H]([C@@H](C)CC)C(=O)N(C)CC(=O)N(C)[C@H]2C/C=C\CCN(C2=O)[C@@H](Cc2ccc(C(F)(F)F)cc2)C(=O)N(C)CC(=O)N[C@@H](CCc2ccc(C(F)(F)F)c(Cl)c2)C(=O)N2C[C@@H](C)C[C@H]2C(=O)NC2(CC(C)(C)C2)C(=O)N(C)[C@@H](C2CCCC2)C(=O)N(C)[C@H](C(=O)N(C)C)CC(=O)N1C` [PP2270]: the Kd in assay [1] is 0.24 nM. For the same compound, the “NRAS/KRAS (ratio of KD value for NRAS to KD value for KRAS)” value in assay [2] was “B (a compound having 3 or more and less than 10 is denoted as B)”. In assay [3], the “HRAS/KRAS (ratio of KD value for HRAS to KD value for KRAS)” value is “B (a compound having 3 or more and less than 10 is denoted as B)”.
Regarding `CC[C@@H]1C[C@H]2C(=O)NC3(CCCC3)C(=O)N(C)[C@@H](C3CCCC3)C(=O)N(C)[C@H](C(=O)N(C)CC)CC(=O)N(C)[C@@H](C)C(=O)N[C@@H]([C@@H](C)CC)C(=O)N(C)CC(=O)N(C)[C@H]3C/C=C\CCN(C3=O)[C@@H](Cc3ccc(C(F)(F)F)cc3)C(=O)N(C)CC(=O)N[C@@H](CCc3cc(F)c(C(F)(F)F)c(F)c3)C(=O)N2C1` [PP2271], the dissociation constant (Kd) in assay [1] came out at 0.29 nM. Besides, the “NRAS/KRAS (ratio of KD value for NRAS to KD value for KRAS)” value in assay [2] was “A (a compound having 10 or more and less than 20 is denoted as A)”. Further, the “HRAS/KRAS (ratio of KD value for HRAS to KD value for KRAS)” value in assay [3] is “A (a compound having 10 or more and less than 20 is denoted as A)”.
Consider `CCC[C@@H]1C[C@H]2C(=O)NC3(CCCC3)C(=O)N(C)[C@@H](C3CCCC3)C(=O)N(C)[C@H](C(=O)N(C)CC)CC(=O)N(C)[C@@H](C)C(=O)N[C@@H]([C@@H](C)CC)C(=O)N(C)CC(=O)N(C)[C@H]3C/C=C\CCN(C3=O)[C@@H](Cc3ccc(C(F)(F)F)cc3)C(=O)N(C)CC(=O)N[C@@H](CCc3cc(F)c(C(F)(F)F)c(F)c3)C(=O)N2C1` [PP2272], for which the Kd in assay [1] is 0.49 nM. In addition, the “NRAS/KRAS (ratio of KD value for NRAS to KD value for KRAS)” value in assay [2] is listed as “AA (a compound having 20 or more is denoted as AA)”. Besides, the “HRAS/KRAS (ratio of KD value for HRAS to KD value for KRAS)” value in assay [3] was “A (a compound having 10 or more and less than 20 is denoted as A)”.
Turning to `CCC[C@@H]1C[C@H]2C(=O)NC3(CC(C)(C)C3)C(=O)N(C)[C@@H](C3CCCC3)C(=O)N(C)[C@H](C(=O)N(C)C)CC(=O)N(C)[C@@H](COC)C(=O)N[C@@H]([C@@H](C)CC)C(=O)N(C)CC(=O)N(C)[C@H]3C/C=C\CCN(C3=O)[C@@H](Cc3ccc(C(F)(F)F)cc3)C(=O)N(C)CC(=O)N[C@@H](CCc3ccc(C(F)(F)F)c(Cl)c3)C(=O)N2C1` [PP2275], the Kd in assay [1] turned out to be 0.36 nM. Further, the “NRAS/KRAS (ratio of KD value for NRAS to KD value for KRAS)” value in assay [2] was “A (a compound having 10 or more and less than 20 is denoted as A)”. Moreover, in assay [3], the “HRAS/KRAS (ratio of KD value for HRAS to KD value for KRAS)” value is “A (a compound having 10 or more and less than 20 is denoted as A)”.
Take `CCC[C@H]1C(=O)N[C@@H]([C@@H](C)CC)C(=O)N(C)CC(=O)N(C)[C@H]2C/C=C\CCN(C2=O)[C@@H](Cc2ccc(C(F)(F)F)cc2)C(=O)N(C)CC(=O)N[C@@H](CCc2ccc(C(F)(F)F)c(OC)c2)C(=O)N2C[C@H](OCC)C[C@H]2C(=O)N(C)C2(CCC2)C(=O)N(C)[C@@H](C2CCCC2)C(=O)N(C)[C@H](C(=O)N(C)C)CC(=O)N1C` [PP2312]: in assay [1], the Kd came to 0.03 nM. The “NRAS/KRAS (ratio of KD value for NRAS to KD value for KRAS)” value in assay [2] was “A (a compound having 10 or more and less than 20 is denoted as A)”. Moreover, the “HRAS/KRAS (ratio of KD value for HRAS to KD value for KRAS)” value in assay [3] is “B (a compound having 3 or more and less than 10 is denoted as B)”.
Turning to `CCC[C@H]1C(=O)N[C@@H]([C@@H](C)CC)C(=O)N(C2CC2)CC(=O)N(C)[C@H]2C/C=C\CCN(C2=O)[C@@H](Cc2ccc(C(F)(F)F)cc2)C(=O)N(C)CC(=O)N[C@@H](CCc2ccc(C(F)(F)F)c(OC)c2)C(=O)N2C[C@H](OCC)C[C@H]2C(=O)N(C)C2(CCC2)C(=O)N(C)[C@@H](C(CC)CC)C(=O)N(C)[C@H](C(=O)N(C)C)CC(=O)N1C` [PP2313], the Kd in assay [1] worked out at 0.49 nM. In addition, the “NRAS/KRAS (ratio of KD value for NRAS to KD value for KRAS)” value in assay [2] is reported as “AA (a compound having 20 or more is denoted as AA)”. In assay [3], the “HRAS/KRAS (ratio of KD value for HRAS to KD value for KRAS)” value is “A (a compound having 10 or more and less than 20 is denoted as A)”.
For `CCC[C@H]1C(=O)N[C@@H]([C@@H](C)CC)C(=O)N(C2CC2)CC(=O)N(C)[C@H]2C/C=C\CCN(C2=O)[C@@H](Cc2ccc(C(F)(F)F)cc2)C(=O)N(C)CC(=O)N[C@@H](CCc2ccc(C(F)(F)F)c(OC)c2)C(=O)N2C[C@H](OCC)C[C@H]2C(=O)N(C)C2(CCC2)C(=O)N(C)[C@@H](C2CCCC2)C(=O)N(C)[C@H](C(=O)N(C)C)CC(=O)N1C` [PP2316, (2S,8S,12R,14S,20S,23S,27S,30S,36S,38Z)-20-cyclopentyl-32-cyclopropyl-12-ethoxy-8-[2-[3-methoxy-4-(trifluoromethyl)phenyl]ethyl]-N,N,4,16,19,22,26,35-octamethyl-30-[(1S)-1-methylpropyl]-3,6,9,15,18,21,25,28,31,34,42-undecaoxo-27-propyl-2-[[4-(trifluoromethyl)phenyl]methyl]spiro[1,4,7,10,16,19,22,26,29,32,35-undecazatricyclo[34.5.1.0^10,14]dotetracont-38-ene-17,1′-cyclobutane]-23-carboxamide], the equilibrium dissociation constant (Kd) in assay [1] was 0.12 nM. Moreover, the “NRAS/KRAS (ratio of KD value for NRAS to KD value for KRAS)” value in assay [2] was “A (a compound having 10 or more and less than 20 is denoted as A)”. Also, the “HRAS/KRAS (ratio of KD value for HRAS to KD value for KRAS)” value in assay [3] is “A (a compound having 10 or more and less than 20 is denoted as A)”.
On to `CCC[C@H]1C(=O)N[C@@H]([C@@H](C)CC)C(=O)N2CCC[C@H]2C(=O)N(C)[C@H]2C/C=C\CCN(C2=O)[C@@H](Cc2ccc(C(F)(F)F)cc2)C(=O)N(C)CC(=O)N[C@@H](CCc2ccc(C(F)(F)F)c(OC)c2)C(=O)N2C[C@H](OCC)C[C@H]2C(=O)N(C)C2(CCC2)C(=O)N(C)[C@@H](C(CC)CC)C(=O)N(C)[C@H](C(=O)N(C)C)CC(=O)N1C` [PP2317], for which the dissociation constant Kd in assay [1] amounted to 0.4 nM. The “NRAS/KRAS (ratio of KD value for NRAS to KD value for KRAS)” value in assay [2] was “A (a compound having 10 or more and less than 20 is denoted as A)”. For the same compound, the “HRAS/KRAS (ratio of KD value for HRAS to KD value for KRAS)” value in assay [3] was “A (a compound having 10 or more and less than 20 is denoted as A)”.
As for `CCOC[C@H]1C(=O)N[C@@H]([C@@H](C)CC)C(=O)N2CCC[C@H]2C(=O)N(C)[C@H]2C/C=C\CCN(C2=O)[C@@H](Cc2ccc(C(F)(F)F)cc2)C(=O)N(C)CC(=O)N[C@@H](CCc2ccc(C(F)(F)F)c(OC)c2)C(=O)N2C[C@H](OCC)C[C@H]2C(=O)N(C)C2(CCC2)C(=O)N(C)[C@@H](C(CC)CC)C(=O)N(C)[C@H](C(=O)N(C)C)CC(=O)N1C` [PP2319], the dissociation constant (Kd) in assay [1] was found to be 0.35 nM. Further, in assay [2], the “NRAS/KRAS (ratio of KD value for NRAS to KD value for KRAS)” value is on record as “AA (a compound having 20 or more is denoted as AA)”. Besides, in assay [3], the “HRAS/KRAS (ratio of KD value for HRAS to KD value for KRAS)” value was “A (a compound having 10 or more and less than 20 is denoted as A)”.
With `CCC[C@H]1C(=O)N[C@@H]([C@@H](C)CC)C(=O)N2CCC[C@H]2C(=O)N(C)[C@H]2C/C=C\CCN(C2=O)[C@@H](Cc2ccc(C(F)(F)F)cc2)C(=O)N(C)CC(=O)N[C@@H](CCc2ccc(C(F)(F)F)c(OC)c2)C(=O)N2C[C@H](OCC)C[C@H]2C(=O)N(C)C2(CCC2)C(=O)N(C)[C@@H](C2CCCC2)C(=O)N(C)[C@H](C(=O)N(C)C)CC(=O)N1C` [PP2320, (1S,4S,10S,13S,17S,20S,26S,28R,32S,38S,42Z)-20-cyclopentyl-28-ethoxy-32-[2-[3-methoxy-4-(trifluoromethyl)phenyl]ethyl]-N,N,2,14,18,21,24,36-octamethyl-10-[(1S)-1-methylpropyl]-3,9,12,15,19,22,25,31,34,37,45-undecaoxo-13-propyl-38-[[4-(trifluoromethyl)phenyl]methyl]spiro[2,8,11,14,18,21,24,30,33,36,39-undecazatetracyclo[37.5.1.0^4,8.0^26,30]pentatetracont-42-ene-23,1′-cyclobutane]-17-carboxamide], in assay [1], the dissociation constant Kd came to 0.11 nM. Moreover, the “NRAS/KRAS (ratio of KD value for NRAS to KD value for KRAS)” value in assay [2] was “A (a compound having 10 or more and less than 20 is denoted as A)”. For the same compound, the “HRAS/KRAS (ratio of KD value for HRAS to KD value for KRAS)” value in assay [3] is “A (a compound having 10 or more and less than 20 is denoted as A)”.
In the case of `CCCOC[C@H]1C(=O)N[C@@H]([C@@H](C)CC)C(=O)N2CCC[C@H]2C(=O)N(C)[C@H]2C/C=C\CCN(C2=O)[C@@H](Cc2ccc(C(F)(F)F)cc2)C(=O)N(C)CC(=O)N[C@@H](CCc2ccc(C(F)(F)F)c(OC)c2)C(=O)N2C[C@H](OCC)C[C@H]2C(=O)N(C)C2(CCC2)C(=O)N(C)[C@@H](C2CCCC2)C(=O)N(C)[C@H](C(=O)N(C)C)CC(=O)N1C` [PP2322], the Kd in assay [1] came out at 0.18 nM. In assay [2], the “NRAS/KRAS (ratio of KD value for NRAS to KD value for KRAS)” value is “A (a compound having 10 or more and less than 20 is denoted as A)”. Moreover, the “HRAS/KRAS (ratio of KD value for HRAS to KD value for KRAS)” value in assay [3] was “B (a compound having 3 or more and less than 10 is denoted as B)”.
In the case of `CCCOC[C@H]1C(=O)N[C@@H]([C@@H](C)CC)C(=O)N(C2CC2)CC(=O)N(C)[C@H]2C/C=C\CCN(C2=O)[C@@H](Cc2ccc(C)cc2)C(=O)N(C)CC(=O)N[C@@H](CCc2ccc(C(F)(F)F)c(OC)c2)C(=O)N2C[C@H](OCC)C[C@H]2C(=O)N(C)C2(CCC2)C(=O)N(C)[C@@H](C(CC)CC)C(=O)N(C)[C@H](C(=O)N(C)C)CC(=O)N1C` [PP2327], the Kd in assay [1] is 0.5 nM. Besides, in assay [2], the “NRAS/KRAS (ratio of KD value for NRAS to KD value for KRAS)” value was “A (a compound having 10 or more and less than 20 is denoted as A)”. Moreover, the “HRAS/KRAS (ratio of KD value for HRAS to KD value for KRAS)” value in assay [3] was “A (a compound having 10 or more and less than 20 is denoted as A)”.

The Kd is the free concentration of one partner at which half of the binding sites on the other are occupied at equilibrium, for simple one-to-one binding.
